{
  "source": "patent US8715648B2",
  "about": "“Method for treating obesity with anti-obesity formulations and omega 3 fatty acids for the reduction of body weight in cardiovascular disease patients (CVD) and diabetics” (Pivotal Therapeutics Inc., priority 2011, dated 2014)",
  "origin": "cited, not measured here",
  "biological_target": "CB1R (Homo sapiens, UniProt P21554)",
  "sequence (P21554 whole entry)": "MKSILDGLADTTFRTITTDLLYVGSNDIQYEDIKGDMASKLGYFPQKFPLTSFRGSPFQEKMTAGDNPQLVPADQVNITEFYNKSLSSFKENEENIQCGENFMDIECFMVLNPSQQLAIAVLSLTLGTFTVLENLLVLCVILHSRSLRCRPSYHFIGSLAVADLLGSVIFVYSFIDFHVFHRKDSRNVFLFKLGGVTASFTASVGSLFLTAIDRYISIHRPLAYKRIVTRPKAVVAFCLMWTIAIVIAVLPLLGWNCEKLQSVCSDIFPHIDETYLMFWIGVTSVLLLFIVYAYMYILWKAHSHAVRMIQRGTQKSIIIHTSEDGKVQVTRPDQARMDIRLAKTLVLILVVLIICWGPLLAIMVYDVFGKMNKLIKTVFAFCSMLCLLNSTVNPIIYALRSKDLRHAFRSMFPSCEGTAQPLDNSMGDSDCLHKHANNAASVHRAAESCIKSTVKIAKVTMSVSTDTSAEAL",
  "conditions": "in vivo",
  "data": [
    {"smiles": "CCNC1(C(N)=O)CCN(c2ncnc3c2nc(-c2ccccc2Cl)n3-c2ccc(Cl)cc2)CC1.Cl", "note": "[CP-945,598]", "values": [
      {"measurement": "Reason for failure of phase III clinical trials", "result": "psychiatric adverse reactions, including severe depression and anxiety"}
    ]}
  ]
}
